{
  "source": "ChEMBL document CHEMBL5331124",
  "about": "“Degradation of Hexokinase 2 Blocks Glycolysis and Induces GSDME-Dependent Pyroptosis to Amplify Immunogenic Cell Death for Breast Cancer Therapy” (J Med Chem, 2023)",
  "key": {"4T1 [1]": {"tested_on": "4T1", "assay": "Antitumor immunity against mouse 4T1 cells implanted in BALB/c mouse model assessed as decrease in PD-L1 protein expression in tumor", "format": "functional, cell-based"}, "[2]": {"biological_target": "T1, Hexokinase-2 (Mus musculus) (UniProt O08528)", "T1 sequence (whole entry)": "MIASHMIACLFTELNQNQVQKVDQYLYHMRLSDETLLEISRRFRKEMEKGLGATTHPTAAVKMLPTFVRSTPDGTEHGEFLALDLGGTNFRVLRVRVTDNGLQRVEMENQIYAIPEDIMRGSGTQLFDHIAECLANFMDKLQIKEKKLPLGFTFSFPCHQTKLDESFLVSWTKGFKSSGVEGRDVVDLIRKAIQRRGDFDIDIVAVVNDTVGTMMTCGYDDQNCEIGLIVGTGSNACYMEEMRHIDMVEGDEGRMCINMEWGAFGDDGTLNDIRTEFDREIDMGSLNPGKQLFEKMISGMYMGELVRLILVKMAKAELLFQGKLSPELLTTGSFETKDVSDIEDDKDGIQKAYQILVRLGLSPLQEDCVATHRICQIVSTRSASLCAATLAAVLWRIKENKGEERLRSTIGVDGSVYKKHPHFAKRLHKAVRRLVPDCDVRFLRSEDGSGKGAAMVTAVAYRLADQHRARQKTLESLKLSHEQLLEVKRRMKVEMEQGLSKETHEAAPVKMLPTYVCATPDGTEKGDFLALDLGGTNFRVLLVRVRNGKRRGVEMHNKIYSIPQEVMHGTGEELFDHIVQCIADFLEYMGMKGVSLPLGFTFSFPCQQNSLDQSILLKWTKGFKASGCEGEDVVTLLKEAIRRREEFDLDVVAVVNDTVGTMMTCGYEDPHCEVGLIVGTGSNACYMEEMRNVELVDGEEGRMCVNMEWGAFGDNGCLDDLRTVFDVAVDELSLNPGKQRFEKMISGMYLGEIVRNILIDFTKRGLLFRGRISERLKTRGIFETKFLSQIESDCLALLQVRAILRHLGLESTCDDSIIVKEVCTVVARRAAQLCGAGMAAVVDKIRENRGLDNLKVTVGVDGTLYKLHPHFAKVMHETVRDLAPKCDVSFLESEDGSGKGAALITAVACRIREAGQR", "assay": "Induction of HK2 degradation in mouse 4T1 cells measured for 36 hrs by confocal microscopic analysis", "format": "cell-based", "settings": "dose 2.0 µM"}, "MCF7": {"tested_on": "MCF7", "assay": "Antiproliferative activity against human MCF7 cells assessed as cell growth inhibition measured for 72 hrs by MTT assay", "format": "functional, cell-based", "settings": "MCF7, 72 h"}, "[3]": {"biological_target": "T2, Hexokinase-2 (Homo sapiens) (UniProt P52789)", "T2 sequence (whole entry)": "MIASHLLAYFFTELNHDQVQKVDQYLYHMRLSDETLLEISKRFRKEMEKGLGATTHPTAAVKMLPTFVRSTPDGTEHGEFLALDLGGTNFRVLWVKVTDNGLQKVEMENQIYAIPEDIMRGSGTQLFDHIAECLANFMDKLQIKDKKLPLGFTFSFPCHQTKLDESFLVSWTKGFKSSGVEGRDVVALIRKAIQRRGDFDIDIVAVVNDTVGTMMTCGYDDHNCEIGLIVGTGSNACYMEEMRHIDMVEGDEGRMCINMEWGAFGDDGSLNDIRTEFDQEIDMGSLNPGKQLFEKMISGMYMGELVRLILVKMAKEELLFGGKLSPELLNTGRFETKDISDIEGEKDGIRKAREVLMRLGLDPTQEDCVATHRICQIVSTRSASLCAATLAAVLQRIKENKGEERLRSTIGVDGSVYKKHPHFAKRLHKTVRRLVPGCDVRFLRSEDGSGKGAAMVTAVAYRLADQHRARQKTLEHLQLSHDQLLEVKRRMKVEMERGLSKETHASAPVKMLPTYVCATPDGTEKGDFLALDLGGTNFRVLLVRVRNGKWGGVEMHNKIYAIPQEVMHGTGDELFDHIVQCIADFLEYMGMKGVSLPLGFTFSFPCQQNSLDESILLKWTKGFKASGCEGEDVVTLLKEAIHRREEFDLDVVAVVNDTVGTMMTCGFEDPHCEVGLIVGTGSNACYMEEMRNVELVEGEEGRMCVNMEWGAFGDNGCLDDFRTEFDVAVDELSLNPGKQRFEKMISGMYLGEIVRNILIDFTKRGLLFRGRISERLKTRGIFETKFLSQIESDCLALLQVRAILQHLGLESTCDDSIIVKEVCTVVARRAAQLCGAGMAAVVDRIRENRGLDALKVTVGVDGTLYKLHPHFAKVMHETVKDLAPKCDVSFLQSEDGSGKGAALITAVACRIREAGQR", "assay": "Induction of HK2 degradation in human MDA-MB-231 cells upto 200 uM measured at 12 to 36 hrs", "format": "cell-based", "settings": "time 12-36 hrs"}, "[4]": {"assay": "Toxicity in BALB/c mouse implanted with mouse 4T1 cells assessed as pathological changes in liver at 50 mg/kg, ip measured after 25 days in presence of cisplatin by Hematoxylin -eosin staining based analysis", "format": "organism-based", "settings": "in vivo, 600 h, time 25 day"}, "[5]": {"assay": "Toxicity in BALB/c mouse implanted with mouse 4T1 cells assessed as effect on mean corpuscular hemoglobin at 50 mg/kg, ip measured after 25 days in presence of cisplatin by routine blood test", "format": "organism-based", "settings": "in vivo, 600 h, time 25 day"}, "4T1 [6]": {"tested_on": "4T1", "assay": "Cytotoxicity against mouse 4T1 cells assessed as inhibition of cell growth at 1 to 100 uM incubated for 48 hrs by CCK-8 assay", "format": "functional, cell-based", "settings": "dose 1-100 µM"}, "PANC-1": {"tested_on": "PANC-1", "assay": "Antiproliferative activity against human PANC-1 cells assessed as cell growth inhibition measured for 72 hrs by MTT assay", "format": "functional, cell-based", "settings": "PANC-1, 72 h"}, "4T1 [7]": {"tested_on": "4T1", "assay": "Antitumor immunity against mouse 4T1 cells implanted in BALB/c mouse model assessed as increase in HMGB1 release in cell supernatant at 20 uM measured for 36 hrs by ELISA analysis", "format": "functional, cell-based"}, "4T1 [8]": {"tested_on": "4T1", "assay": "Antitumor immunity against mouse 4T1 cells implanted in BALB/c mouse model assessed as increase in cleaved caspase-3 expression in tumor", "format": "functional, cell-based"}, "MDA-MB-231 [9]": {"tested_on": "MDA-MB-231", "assay": "Induction of pyroptosis in human MDA-MB-231 cells assessed as increase in cleaved caspase-3 level level at 20 uM incubated for 36 hrs by Western blot analysis", "format": "functional, cell-based"}, "[10]": {"biological_target": "T1, Hexokinase-2 (Mus musculus)", "assay": "Induction of HK2 degradation in mouse 4T1 cells at 20 uM measured upto 18 hrs by Western blot analysis", "format": "cell-based"}, "[11]": {"assay": "Toxicity in BALB/c nude mouse xenografted with human MDA-MB-231 cells assessed as effect on mean corpuscular hemoglobin concentration at 50 mg/kg, ip measured after 30 days by routine blood test", "format": "organism-based", "settings": "in vivo, 720 h, time 30 day"}, "MDA-MB-231 [12]": {"tested_on": "MDA-MB-231", "assay": "Antitumor activity against human MDA-MB-231 cells xenografted in BALB/c nude mouse assessed as increase in cleaved caspase-3 level at 50 mg/kg, ip measured after 28 days", "format": "functional, organism-based", "settings": "time 28.0 day"}, "[13]": {"assay": "Toxicity in BALB/c mouse implanted with mouse 4T1 cells assessed as pathological changes in liver at 50 mg/kg, ip measured after 25 days by Hematoxylin -eosin staining based analysis", "format": "organism-based", "settings": "in vivo, 600 h, time 25 day"}, "4T1 [14]": {"tested_on": "4T1", "assay": "Antitumor immunity against mouse 4T1 cells implanted in BALB/c mouse model assessed as reduction tumor cell proliferation at 50 mg/kg, ip measured after 25 days by Ki67 staining based analysis", "format": "functional, organism-based", "settings": "time 25.0 day"}},
  "note": "Activity calls are given as the source filed them. The rule behind the calls is not given here.",
  "data": [
    {"smiles": "O=C1CCC(N2C(=O)c3cccc(NCCCCNC(=O)c4nn(Cc5ccc(Cl)cc5Cl)c5ccccc45)c3C2=O)C(=O)N1", "note": "(stereo unspecified)", "values": [
      {"measurement": "Activity", "setting": "4T1 [1]", "value": "Active"},
      {"measurement": "Activity", "setting": "[2]", "value": "Dose-Dependent Effect"},
      {"measurement": "IC50", "setting": "MCF7", "value": 21.7, "unit": "µM"},
      {"measurement": "Activity", "setting": "[3]", "value": "Active"},
      {"measurement": "Activity", "setting": "[4]", "value": "Non-Toxic"},
      {"measurement": "Activity", "setting": "[5]", "value": "Non-Toxic"},
      {"measurement": "Activity", "setting": "4T1 [6]", "value": "Active"},
      {"measurement": "IC50", "setting": "PANC-1", "value": 31.5, "unit": "µM"},
      {"measurement": "Activity", "setting": "4T1 [7]", "value": "Active"},
      {"measurement": "Activity", "setting": "4T1 [8]", "value": "Active"},
      {"measurement": "Activity", "setting": "MDA-MB-231 [9]", "value": "Active"},
      {"measurement": "Activity", "setting": "[10]", "value": "Active"},
      {"measurement": "Activity", "setting": "[11]", "value": "Non-Toxic"},
      {"measurement": "Activity", "setting": "MDA-MB-231 [12]", "value": "Active"},
      {"measurement": "Activity", "setting": "[13]", "value": "Non-Toxic"},
      {"measurement": "Activity", "setting": "4T1 [14]", "value": "Active"}
    ]}
  ]
}
